# In article PMC9631343 (ACS Bio & Med Chem Au, 2022):
# Test system: SARS-CoV-2 (Omicron variant, B.1.1.529.1/BA.1 sublineage)
# Format: cell-based
smiles,measurement,value
OC[C@H]1O[C@@H](n2cnc3c(N[C@@H]4CCOC4)ncnc32)[C@H](O)[C@@H]1O [tecadenoson],100% CPE inhibitory concentration (CPEIC100),7.65 ± 0.25 µM
